Experimental data: PMC4767605 (Cancer chemotherapy and pharmacology, 2016)
“And” between values parts separate entries of the source, which are not always exact repeats. Equal entries are not always repeated. Where two headings read alike, the source gives them in different places.

[1] = ASP9853 Lead-in (n=20), single agent
[2] = Cohort 1 (n=6): ASP9853 25 mg + docetaxel 60 mg/m^2
[3] = Cohort 2 (n=4): ASP9853 25 mg + docetaxel 75 mg/m^2
[4] = Cohort 3 (n=3): ASP9853 37.5 mg + docetaxel 60 mg/m^2

O.O.O=C(/C=C/c1ccc(Cl)cc1)N[C@@H](Cc1ccccn1)C(=O)NCC(=O)N1CCC(Oc2cc(C(F)(F)F)ncn2)CC1 [ASP9853, (2E)-3-(4-chlorophenyl)-N-[(1S)-2-oxo-2-{[2-oxo-2-(4-{[6-(trifluoromethyl)-4-pyrimidinyl]oxy}-1-piperidinyl)ethyl]amino}-1-(2-pyridinylmethyl)ethyl]acrylamide dehydrate]
Toxicity noted in single-patient Cohort 1 (did not meet DLT criteria) (ASP9853 25 mg + docetaxel 60 mg/m^2): Grade 3 neutropenia
Changes in liver function tests, vital signs, or electrocardiogram (ECGs) (ASP9853 + docetaxel): No clinically significant changes from baseline
Neutropenia during treatment (laboratory evaluation) (ASP9853 + docetaxel): All patients experienced neutropenia
Patients with AEs that led to treatment discontinuation (ASP9853 + docetaxel, all cohorts): Three
AE potentially related to ASP9853: Anemia; Grade 3/4 [1]: 0 n (%)
AE potentially related to ASP9853: Anemia; Grade All [1]: 0 n (%)
AE potentially related to ASP9853: Asthenia; Grade 3/4 [1]: 0 n (%)
AE potentially related to ASP9853: Asthenia; Grade All [1]: 1 (5) n (%)
AE potentially related to ASP9853: Constipation; Grade 3/4 [1]: 0 n (%)
AE potentially related to ASP9853: Constipation; Grade All [1]: 0 n (%)
AE potentially related to ASP9853: Decreased appetite; Grade 3/4 [1]: 0 n (%)
AE potentially related to ASP9853: Decreased appetite; Grade All [1]: 0 n (%)
AE potentially related to ASP9853: Diarrhea; Grade 3/4 (only Grade 3) [1]: 0 n (%)
AE potentially related to ASP9853: Diarrhea; Grade All [1]: 0 n (%)
AE potentially related to ASP9853: Dizziness; Grade 3/4 [1]: 0 n (%)
AE potentially related to ASP9853: Dizziness; Grade All [1]: 0 n (%)
AE potentially related to ASP9853: Fatigue; Grade 3/4 (only Grade 3) [1]: 0 n (%)
AE potentially related to ASP9853: Fatigue; Grade All [1]: 0 n (%)
AE potentially related to ASP9853: Febrile neutropenia; Grade 3/4 [1]: 0 n (%)
AE potentially related to ASP9853: Febrile neutropenia; Grade All [1]: 0 n (%)
AE potentially related to ASP9853: Nausea; Grade 3/4 [1]: 0 n (%)
AE potentially related to ASP9853: Nausea; Grade All [1]: 1(5) n (%)
AE potentially related to ASP9853: Neutropenia; Grade 3/4 [1]: 0 n (%)
AE potentially related to ASP9853: Neutropenia; Grade All [1]: 0 n (%)
AE potentially related to ASP9853: Neutrophil count decreased; Grade 3/4 [1]: 0 n (%)
AE potentially related to ASP9853: Neutrophil count decreased; Grade All [1]: 0 n (%)
AE potentially related to ASP9853: Overall; Grade 3/4 [1]: 0 n (%)
AE potentially related to ASP9853: Overall; Grade All [1]: 7 [35%] n (%) and 7 (35) n (%)
AE potentially related to ASP9853: Vomiting; Grade 3/4 [1]: 0 n (%)
AE potentially related to ASP9853: Vomiting; Grade All [1]: 1 (5) n (%)
AE potentially related to ASP9853: White blood cell count decreased; Grade All [1]: 0 n (%)
AE potentially related to ASP9853: Anemia; Grade 3/4 [2]: 0 n (%)
AE potentially related to ASP9853: Anemia; Grade All [2]: 1 (17) n (%)
AE potentially related to ASP9853: Asthenia; Grade 3/4 [2]: 0 n (%)
AE potentially related to ASP9853: Asthenia; Grade All [2]: 0 n (%)
AE potentially related to ASP9853: Constipation; Grade 3/4 [2]: 0 n (%)
AE potentially related to ASP9853: Constipation; Grade All [2]: 1 (17) n (%)
AE potentially related to ASP9853: Decreased appetite; Grade 3/4 [2]: 0 n (%)
AE potentially related to ASP9853: Decreased appetite; Grade All [2]: 0 n (%)
AE potentially related to ASP9853: Diarrhea; Grade 3/4 (only Grade 3) [2]: 0 n (%)
AE potentially related to ASP9853: Diarrhea; Grade All [2]: 1 (17) n (%)
AE potentially related to ASP9853: Dizziness; Grade 3/4 [2]: 0 n (%)
AE potentially related to ASP9853: Dizziness; Grade All [2]: 0 n (%)
AE potentially related to ASP9853: Fatigue; Grade 3/4 (only Grade 3) [2]: 0 n (%)
AE potentially related to ASP9853: Fatigue; Grade All [2]: 2 (33) n (%)
AE potentially related to ASP9853: Febrile neutropenia; Grade 3/4 [2]: 0 n (%)
AE potentially related to ASP9853: Febrile neutropenia; Grade All [2]: 0 n (%)
AE potentially related to ASP9853: Nausea; Grade 3/4 [2]: 0 n (%)
AE potentially related to ASP9853: Nausea; Grade All [2]: 0 n (%)
AE potentially related to ASP9853: Neutropenia; Grade 3/4 [2]: 1 (17) n (%)
AE potentially related to ASP9853: Neutropenia; Grade All [2]: 1 (17) n (%)
AE potentially related to ASP9853: Neutrophil count decreased; Grade 3/4 [2]: 0 n (%)
AE potentially related to ASP9853: Neutrophil count decreased; Grade All [2]: 0 n (%)
AE potentially related to ASP9853: Overall; Grade 3/4 [2]: 2 (33) n (%)
AE potentially related to ASP9853: Overall; Grade All [2]: 5 (83) n (%)
AE potentially related to ASP9853: Vomiting; Grade 3/4 [2]: 0 n (%)
AE potentially related to ASP9853: Vomiting; Grade All [2]: 0 n (%)
AE potentially related to ASP9853: White blood cell count decreased; Grade All [2]: 1 (17) n (%)
SAE considered related to ASP9853: diarrhea (Cohort 2): 1 n
SAE considered related to ASP9853: febrile neutropenia (Cohort 2): 2 n
AE potentially related to ASP9853: Anemia; Grade 3/4 [3]: 0 n (%)
AE potentially related to ASP9853: Anemia; Grade All [3]: 1 (25) n (%)
AE potentially related to ASP9853: Asthenia; Grade 3/4 [3]: 0 n (%)
AE potentially related to ASP9853: Asthenia; Grade All [3]: 2 (50) n (%)
AE potentially related to ASP9853: Constipation; Grade 3/4 [3]: 0 n (%)
AE potentially related to ASP9853: Constipation; Grade All [3]: 0 n (%)
AE potentially related to ASP9853: Decreased appetite; Grade 3/4 [3]: 0 n (%)
AE potentially related to ASP9853: Decreased appetite; Grade All [3]: 1 (25) n (%)
AE potentially related to ASP9853: Diarrhea; Grade 3/4 (only Grade 3) [3]: 1 (25) n (%)
AE potentially related to ASP9853: Diarrhea; Grade All [3]: 2 (50) n (%)
AE potentially related to ASP9853: Dizziness; Grade 3/4 [3]: 0 n (%)
AE potentially related to ASP9853: Dizziness; Grade All [3]: 0 n (%)
AE potentially related to ASP9853: Fatigue; Grade 3/4 (only Grade 3) [3]: 1 (25) n (%)
AE potentially related to ASP9853: Fatigue; Grade All [3]: 3 (75) n (%)
AE potentially related to ASP9853: Febrile neutropenia; Grade 3/4 [3]: 2 (50) n (%)
AE potentially related to ASP9853: Febrile neutropenia; Grade All [3]: 2 (50) n (%)
AE potentially related to ASP9853: Nausea; Grade 3/4 [3]: 0 n (%)
AE potentially related to ASP9853: Nausea; Grade All [3]: 2 (50) n (%)
AE potentially related to ASP9853: Neutropenia; Grade 3/4 [3]: 0 n (%)
AE potentially related to ASP9853: Neutropenia; Grade All [3]: 0 n (%)
AE potentially related to ASP9853: Neutrophil count decreased; Grade 3/4 [3]: 0 n (%)
AE potentially related to ASP9853: Neutrophil count decreased; Grade All [3]: 0 n (%)
AE potentially related to ASP9853: Overall; Grade 3/4 [3]: 3 (75) n (%)
AE potentially related to ASP9853: Overall; Grade All [3]: 3 (75) n (%)
AE potentially related to ASP9853: Vomiting; Grade 3/4 [3]: 0 n (%)
AE potentially related to ASP9853: Vomiting; Grade All [3]: 3 (75) n (%)
AE potentially related to ASP9853: White blood cell count decreased; Grade All [3]: 0 n (%)
AE potentially related to ASP9853: Anemia; Grade 3/4 [4]: 0 n (%)
AE potentially related to ASP9853: Anemia; Grade All [4]: 0 n (%)
AE potentially related to ASP9853: Asthenia; Grade 3/4 [4]: 0 n (%)
AE potentially related to ASP9853: Asthenia; Grade All [4]: 0 n (%)
AE potentially related to ASP9853: Constipation; Grade 3/4 [4]: 0 n (%)
AE potentially related to ASP9853: Constipation; Grade All [4]: 1 (33) n (%)
AE potentially related to ASP9853: Decreased appetite; Grade 3/4 [4]: 0 n (%)
